Results on 29 compounds are retold here after patent US8455658B2, “Thiazole and thiadiazole compounds for inflammation and immune-related uses” (Synta Pharmaceuticals Corp., priority 2006, dated 2013).

The assay concerns IL-2 production. Nature of the assay: Inhibition of IL-2 production in PHA-activated Jurkat cells (ELISA). To be noted: Homo sapiens, PHA 2.5 μg/mL, IL-2 ELISA. Type of assay: cell-based. As to the method:
Jurkat cells were placed in a 96 well plate (0.5 million cells per well in 1% FBS medium) then a test compound of this invention was added at different concentrations. After 10 minutes, the cells were activated with PHA (final concentration 2.5 μg/mL) and incubated for 20 hours at 37° C. under CO2. The final volume was 200 μL. Following incubation, the cells were centrifuged and the supernatants collected and stored at −70° C. prior to assaying for IL-2 production. A commercial ELISA kit (IL-2 Eli-pair, Diaclone Research, Besancon, France) was used to detect production of IL-2, from which dose response curves were obtained.

Where a name gives a salt, the structure may show the parent alone.

As for `COc1ccc(OC)c(-c2csc(NC(=O)c3c(F)cccc3F)n2)c1` [Compound 2, N-[4-(2,5-Dimethoxy-phenyl)-thiazol-2-yl]-2,6-difluoro-benzamide], under “Jurkat, 20 h”, the IC50 is greater than 1000 nM.
For `COc1ccc(OC)c(-c2cnc(NC(=O)c3c(F)cccc3F)s2)c1` [Compound 3, N-[5-(2,5-Dimethoxy-phenyl)-thiazol-2-yl]-2,6-difluoro-benzamide], under “Jurkat, 20 h”, the IC50 lay in the range of 100 to 200 nM.
In the case of `O=C(Nc1ncc(-c2cc(C(F)(F)F)ccc2Cl)s1)c1c(F)cccc1F` [Compound 4, N-[5-(2-Chloro-5-trifluoromethyl-phenyl)-thiazol-2-yl]-2,6-difluoro-benzamide], the IC50 (Jurkat, 20 h) fell in the range of 50 to 100 nM.
For `N#Cc1cccc(-c2cnc(NC(=O)c3c(F)cccc3F)s2)c1` [Compound 6, N-[5-(3-Cyano-phenyl)-thiazol-2-yl]-2,6-difluoro-benzamide], the IC50 (Jurkat, 20 h) was greater than 1000 nM.
The compound `Cn1nnc(-c2cccc(-c3cnc(NC(=O)c4c(F)cccc4F)s3)c2)n1` [Compound 7, 2,6-Difluoro-N-{5-[3-(2-methyl-2H-tetrazol-5-yl)-phenyl]-thiazol-2-yl}-benzamide] yielded an IC50 (Jurkat, 20 h) greater than 1000 nM.
`COC(=O)c1cccc(-c2sc(NC(=O)c3c(F)cccc3F)nc2C)c1` [Compound 8, 3-[2-(2,6-Difluoro-benzoylamino)-4-methyl-thiazol-5-yl]-benzoic acid methyl ester] displayed an IC50 (Jurkat, 20 h) of 200 to 500 nM.
The same measure, in the same setting: the same measure for `Cc1nc(NC(=O)c2c(F)cccc2F)sc1-c1cccc(C(F)(F)F)c1` [Compound 9, 2,6-Difluoro-N-[4-methyl-5-(3-trifluoromethyl-phenyl)-thiazol-2-yl]-benzamide]: 30 to 50 nM; for `Cc1nc(NC(=O)c2ccncc2F)sc1-c1cccc(C(F)(F)F)c1` [Compound 10, 3-Fluoro-N-[4-methyl-5-(3-trifluoromethyl-phenyl)-thiazol-2-yl]-isonicotinamide]: greater than 1000 nM.
For the setting “Jurkat, 20 h”, `Cc1nnsc1C(=O)Nc1nc(C)c(-c2cccc(C(F)(F)F)c2)s1` [Compound 12, 4-Methyl-[1,2,3]thiadiazole-5-carboxylic acid [4-methyl-5-(3-trifluoromethyl-phenyl)-thiazol-2-yl]-amide] had an IC50 greater than 1000 nM.
Compound `Cc1nc(NC(=O)c2c(F)cccc2F)sc1-c1cccc(C#N)c1` [Compound 13, N-[5-(3-Cyano-phenyl)-4-methyl-thiazol-2-yl]-2,6-difluoro-benzamide] showed an IC50 (Jurkat, 20 h) of 100 to 200 nM.
The compound `O=C(Nc1nnc(-c2cc(C(F)(F)F)ccc2Cl)s1)c1c(F)cccc1F` [Compound 44, N-[5-(2-Chloro-5-trifluoromethyl-phenyl)-[1,3,4]thiadiazol-2-yl]-2,6-difluoro-benzamide] yielded an IC50 (Jurkat, 20 h) greater than 1000 nM.
Compound `Cc1nc(NC(=O)c2c(F)cccc2F)sc1-c1cccc(C(F)(F)F)c1` [Compound 48, Sodium (2,6-difluorobenzoyl)(4-methyl-5-(3-(trifluoromethyl)phenyl)thiazol-2-yl)amide] gave an IC50 (20 hours) of 50 to 100 nM.
Under “Jurkat, 20 h”, `Cc1nc(NC(=O)c2cccnc2F)sc1-c1cccc(C(F)(F)F)c1` [Compound 50, 2-Fluoro-N-(4-methyl-5-(3-(trifluoromethyl)phenyl)thiazol-2-yl)nicotinamide] registered an IC50 of 200 to 500 nM.
On to `Cc1ncccc1C(=O)Nc1nc(C)c(-c2cccc(C(F)(F)F)c2)s1` [Compound 51, 2-Methyl-N-(4-methyl-5-(3-(trifluoromethyl)phenyl)thiazol-2-yl)nicotinamide], for which the IC50 (Jurkat, 20 h) was greater than 1000 nM.
As for `O=C(Nc1nc(C2CC2)c(-c2cccc(C(F)(F)F)c2)s1)c1c(F)cccc1F` [Compound 52, N-(4-Cyclopropyl-5-(3-(trifluoromethyl)phenyl)thiazol-2-yl)-2,6-difluorobenzamide], the IC50 (Jurkat, 20 h) was in the range of 50 to 100 nM.
The same measure, in the same setting: with `Cc1cnccc1C(=O)Nc1nc(C2CC2)c(-c2cccc(C(F)(F)F)c2)s1` [Compound 53, N-(4-cyclopropyl-5-(3-(trifluoromethyl)phenyl)thiazol-2-yl)-3-methylisonicotinamide] the figure was 50 to 100 nM; with `Cc1nc(NC(=O)c2c(F)cccc2F)sc1-c1ccncc1` [Compound 54, 2,6-Difluoro-N-(4-methyl-5-(pyridin-4-yl)thiazol-2-yl)benzamide hydrobromide], greater than 1000 nM.
For `COc1ccc(OC)c(-c2sc(NC(=O)c3c(F)cccc3F)nc2C)c1` [Compound 55, N-(5-(2,5-Dimethoxyphenyl)-4-methylthiazol-2-yl)-2,6-difluorobenzamide], under “Jurkat, 20 h”, the IC50 lay in the range of 200 to 500 nM.
As to `Cc1nc(NC(=O)c2c(F)cccc2F)sc1-c1cc(Br)c2c(c1)OCO2` [Compound 56, N-(5-(7-Bromobenzo[d][1,3]dioxol-5-yl)-4-methylthiazol-2-yl)-2,6-difluorobenzamide], the IC50 (Jurkat, 20 h) lay within 200 to 500 nM.
As for `Cc1nc(NC(=O)c2c(F)cccc2F)sc1-c1ccc2c(c1)OCO2` [Compound 57, N-(5-(Benzo[d][1,3]dioxol-5-yl)-4-methylthiazol-2-yl)-2,6-difluorobenzamide], under “Jurkat, 20 h”, the IC50 was 200 to 500 nM.
The same measure, in the same setting: with `Cc1nc(NC(=O)c2c(F)cccc2F)sc1-c1cc(C#N)c2c(c1)OCO2` [Compound 58, N-(5-(7-Cyanobenzo[d][1,3]dioxol-5-yl)-4-methylthiazol-2-yl)-2,6-difluorobenzamide] the figure was 200 to 500 nM; with `Cc1nc(NC(=O)c2c(F)cccc2F)sc1-c1ccc(Br)s1` [Compound 59, N-(5-(5-Bromothiophen-2-yl)-4-methylthiazol-2-yl)-2,6-difluorobenzamide], 100 to 200 nM.
Take `Cc1nc(NC(=O)c2c(F)cccc2F)sc1-c1cc(Br)sc1Br` [Compound 61, N-(5-(2,5-Dibromothiophen-3-yl)-4-methylthiazol-2-yl)-2,6-difluorobenzamide]: the IC50 (Jurkat, 20 h) lay within 200 to 500 nM.
Regarding `Cc1nc(NC(=O)c2c(F)cccc2F)sc1-c1ccsc1` [Compound 62, 2,6-Difluoro-N-(4-methyl-5-(thiophen-3-yl)thiazol-2-yl)benzamide], where the note is “Jurkat, 20 h”, the IC50 is greater than 1000 nM.
`C=CCOc1ccc(C(F)(F)F)cc1-c1sc(NC(=O)c2c(F)cccc2F)nc1C(=O)OC` [Compound 63, Methyl 5-(2-(allyloxy)-5-(trifluoromethyl)phenyl)-2-(2,6-difluorobenzamido)thiazole-4-carboxylate]: the IC50 (Jurkat, 20 h) is greater than 1000 nM.
`C=CCOc1ccc(C(F)(F)F)cc1-c1sc(NC(=O)c2c(F)cccc2F)nc1C(=C)C` [Compound 64, N-(5-(2-(Allyloxy)-5-(trifluoromethyl)phenyl)-4-(prop-1-en-2-yl)thiazol-2-yl)-2,6-difluorobenzamide] registered an IC50 (Jurkat, 20 h) greater than 1000 nM.
Still for that read-out and setting: with `C=CCOc1ccc(C(F)(F)F)cc1-c1cnc(NC(=O)c2c(F)cccc2F)s1` [Compound 65, N-(5-(2-(Allyloxy)-5-(trifluoromethyl)phenyl)thiazol-2-yl)-2,6-difluorobenzamide] the figure was greater than 1000 nM.
`O=C(O)c1nc(NC(=O)c2c(F)cccc2F)sc1-c1cccc(C(F)(F)F)c1` [Compound 66, 2-(2,6-difluorobenzamido)-5-(3-(trifluoromethyl)phenyl)thiazole-4-carboxylic acid] had an IC50 (Jurkat, 20 h) greater than 1000 nM.
Where the note is “Jurkat, 20 h”, `O=Cc1nc(NC(=O)c2c(F)cccc2F)sc1-c1cccc(C(F)(F)F)c1` [Compound 67, 2,6-Difluoro-N-(4-formyl-5-(3-(trifluoromethyl)phenyl)thiazol-2-yl)benzamide] showed an IC50 greater than 1000 nM.

A word on the IC50: it is the concentration that gives 50% inhibition.
